The record followed here is ChEMBL document CHEMBL1143316, “Japonicones A-D, bioactive dimeric sesquiterpenes from Inula japonica Thunb” (Bioorg Med Chem Lett, 2009).

Values after ≈ are worked out from the molar mass of the structure shown.

Holding throughout (type): functional, cell-based
For one assay, the system named is CCRF-CEM. Nature of the assay: Cytotoxicity against human CEM cells by MTT assay. Background: Tetrazolium dyes change colour on reduction, which living cells bring about.
For a further assay, the system named is LoVo. Nature of the assay: Cytotoxicity against human LoVo cells by MTT assay.
The next assay relates to MDA-MB-435. The assay is described as follows: Cytotoxicity against human MDA-MB-435 cells by MTT assay.
The next assay concerns A549. The assay is described as follows: Cytotoxicity against human A549 cells by MTT assay.

By IC50 is commonly meant the concentration that inhibits the measured activity by half. In the case of `C=C1C(=O)O[C@@H]2C[C@@H](C)[C@]34C[C@]5(C(=O)O[C@H]6C[C@@]7(C)C(=C[C@H]65)[C@H](C)CC[C@@H]7O)[C@H](C(C)=C3C[C@@H]12)[C@@H]4OC(C)=O` [JAPONICONE A], the IC50 came out at 0.001 µg/mL (≈ 0.00186 µM) in the assay with CCRF-CEM, 0.256 µg/mL (≈ 0.477 µM) with LoVo, 0.198 µg/mL (≈ 0.369 µM) in the assay with MDA-MB-435 and 1.62 µg/mL (≈ 3.02 µM) with A549.
